Assay results published in patent US11485742B2, “2-azaspiro[3.4]octane derivatives as M4 agonists” (NOVARTIS AG, priority 2019, dated 2022).
Structures can show the parent of a compound that is named as a salt.

How the values were obtained:
Assay type in all cases: cell-based
[1] = molecular target: T1, human cloned CHRM3 receptor (Homo sapiens, UniProt P20309); assay: CHRM3 Ca++ Flux Assay (M3_CHO cells, agonist mode); details: for M3 FDSS PA % / Emax: Percent Activity (PA) measured to EC100 of Carbachol; for EC50: agonist mode, geometric mean if tested more than once, read-out: M3 FDSS EC50; for Emax: read-out: M3 FDSS PA %
T1 construct: expressed in transfected cells; host or cells: CHO-K1 (M3_CHO)
Experimental: (§1) The above examples were characterized by measuring the intracellular mobilization of Ca^++ ions caused by signaling events mediated by the receptor. The Intra-cellular Calcium flux levels were captured by the highly sensitive Ca^++ indicator, Calcium Assay Kit (BD Biosciences; Catalog Number 640178. The fluorescent activity from all receptors were monitored by the fluorescent imager, FDSS 7000EX (Hamamatsu) over a span of 3 minutes. The change in Calcium flux was readily captured upon activation with the muscarinic orthosteric agonist, Carbachol.
(§2) CHO-K1 cells stably expressing the human cloned CHRM3 receptor (M3_CHO cells) were grown and maintained in a monolayer culture with F12/HAM (Life Technologies) supplemented with 10% Fetal Bovine Serum, IX Pen-Strep, and 0.4 mg/mL Geneticin in a humidified atmosphere (5% CO2) at 37° C. The cultures were grown to 80-90% confluency in T150 flasks (Corning) and washed with 1×DPBS and lifted with 0.05% Trypsin (Life Technologies). The cells were then spun (1K rpm, 3 minutes) and frozen using Recovery Cell Culture Freezing Media (Gibco Technologies). Cells were stored in liquid nitrogen and thawed a day before the assay. A similar procedure was used for cells stably expressing the human cloned CHRM5 receptor (M5_CHO).
(§3) Prior to the day of the assay, stable M3_CHO or M5_CHO cells were thawed and plated on Greiner 384 well black TC treated plates at 12K cells/well in F12/DMEM supplemented with 10% FBS (Hyclone) and kept overnight in a humidified atmosphere (5% CO2) at 37° C. The next day, cells were loaded with Ca^++ dye (BD Biosciences) using Loading Buffer (HBSS +Ca/+Mg, 20 mM HEPES, 2.5 mM Probenecid) and placed back in cell incubator for a minimum of 1 hour. After incubation, the dye was replaced with Assay Buffer (HBSS −Ca/−Mg, 20 mM HEPES, 2.5 mM Probenecid) and kept at room temperature in the dark before running on cell imager. The FDSS 7000EX (Hamamatsu) was used to acquire Ca^+− traces from cells treated with 11 point dose response of compounds in triplicate in order to generate dose response curves in agonist mode. All compounds were serially diluted in DMSO then prepared in Assay Buffer for Ca^++ flux studies. The dose response curves were generated from the average of triplicate wells obtained from each data point and used a non-linear regression of four parameter dose response algorithm. The Percent Activity (PA) was measured to EC100 of Carbachol.
(§4) If an Example was tested more than once in an assay, then the values below represent the geometric mean of the results from each independent experiment.

[2] = molecular target: T2, human cloned CHRM5 receptor (Homo sapiens, UniProt P08912); assay: CHRM5 Ca++ Flux Assay (M5_CHO cells, agonist mode); details: for M5 FDSS PA % / Emax: Percent Activity (PA) measured to EC100 of Carbachol; for EC50: agonist mode, geometric mean if tested more than once, read-out: M5 FDSS EC50; for Emax: read-out: M5 FDSS PA %
T2 construct: expressed in transfected cells; host or cells: CHO (M5_CHO)
T2 sequence (P08912 1-532): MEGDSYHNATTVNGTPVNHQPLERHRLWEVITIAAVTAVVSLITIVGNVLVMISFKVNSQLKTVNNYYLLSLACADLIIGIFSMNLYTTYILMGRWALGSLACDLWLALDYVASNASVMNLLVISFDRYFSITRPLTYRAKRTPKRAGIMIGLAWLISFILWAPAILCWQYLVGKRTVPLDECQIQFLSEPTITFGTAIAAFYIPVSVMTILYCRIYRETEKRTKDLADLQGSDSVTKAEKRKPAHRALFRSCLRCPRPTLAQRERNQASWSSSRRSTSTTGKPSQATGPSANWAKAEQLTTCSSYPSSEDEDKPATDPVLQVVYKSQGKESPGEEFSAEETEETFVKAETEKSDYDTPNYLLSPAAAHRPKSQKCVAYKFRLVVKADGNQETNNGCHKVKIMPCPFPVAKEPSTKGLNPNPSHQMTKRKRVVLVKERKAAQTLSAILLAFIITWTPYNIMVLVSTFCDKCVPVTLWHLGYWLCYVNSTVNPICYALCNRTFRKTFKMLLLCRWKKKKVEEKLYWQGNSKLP
Experimental: as §1, §2, §3, §4

[3] = molecular target: T3, human cloned CHRM2 receptor (Homo sapiens, UniProt P08172); assay: CHRM2 Ca++ Flux Assay (M2_CHO cells, agonist mode); details: M2 CHO cells; for EC50: agonist mode, geometric mean if tested more than once, read-out: M2 FDSS EC50; for M2 FDSS PA % / Emax: Percent Activity (PA) measured to EC100 of Carbachol; for Emax: read-out: M2 FDSS PA %
T3 construct: expressed in transfected cells; host or cells: CHO-K1 (M2_CHO)
T3 sequence (P08172 1-466): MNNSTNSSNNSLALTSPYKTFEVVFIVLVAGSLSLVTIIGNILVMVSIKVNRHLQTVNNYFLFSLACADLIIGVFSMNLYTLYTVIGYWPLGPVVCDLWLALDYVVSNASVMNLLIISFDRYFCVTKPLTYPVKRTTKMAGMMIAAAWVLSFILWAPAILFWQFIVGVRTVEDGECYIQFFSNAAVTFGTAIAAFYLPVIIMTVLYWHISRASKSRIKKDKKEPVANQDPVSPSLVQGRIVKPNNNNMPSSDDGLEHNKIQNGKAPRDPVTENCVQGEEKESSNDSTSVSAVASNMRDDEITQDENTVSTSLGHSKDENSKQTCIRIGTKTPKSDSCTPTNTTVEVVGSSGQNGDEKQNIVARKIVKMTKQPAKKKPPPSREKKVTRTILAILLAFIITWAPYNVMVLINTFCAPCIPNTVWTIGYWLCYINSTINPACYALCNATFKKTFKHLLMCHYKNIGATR
Experimental: as §1
as §2, with “CHRM2” for “CHRM3”, “(M2_CHO” for “(M3_CHO”, “1×Pen-Strep,” for “IX Pen-Strep,”, “assay.” for “assay. A similar procedure was used for cells stably expressing the human cloned CHRM5 receptor (M5_CHO).”
Prior to the day of the assay, stable M2 CHO cells were thawed and plated on Greiner 384 well TC treated plate at a density of 12K cells/well and kept overnight in a humidified atmosphere (5% CO2) at 37° C. The following day, the cells were loaded with Ca^++ dye (BD Biosciences) using Loading Buffer (HBSS +Ca/+Mg, 20 mM HEPES, 2.5 mM Probenecid) and placed back in cell incubator for a minimum of 1 hour and maximum of 2 hours. After incubation, the dye was replaced with Assay Buffer (HBSS −Ca/−Mg, 20 mM HEPES, 2.5 mM Probenecid) supplemented with 20 μM ATP (Sigma Aldrich) and kept at room temperature for 60 minutes prior before running on cell imager. The FDSS 7000EX (Hamamatsu) was used to acquire Ca^++ traces from cells in response to compound treatment and the data was used to generate dose response curves in agonist mode. All compounds were serially diluted in DMSO then prepared in Assay Buffer for Ca^−+ flux studies. The dose response curves were generated from the average of triplicate wells obtained from each data point and used a non-linear regression of four parameter dose response algorithm. The Percent Activity (PA) was measured to EC100 of Carbachol.
as §4

T1 sequence (P20309 whole entry): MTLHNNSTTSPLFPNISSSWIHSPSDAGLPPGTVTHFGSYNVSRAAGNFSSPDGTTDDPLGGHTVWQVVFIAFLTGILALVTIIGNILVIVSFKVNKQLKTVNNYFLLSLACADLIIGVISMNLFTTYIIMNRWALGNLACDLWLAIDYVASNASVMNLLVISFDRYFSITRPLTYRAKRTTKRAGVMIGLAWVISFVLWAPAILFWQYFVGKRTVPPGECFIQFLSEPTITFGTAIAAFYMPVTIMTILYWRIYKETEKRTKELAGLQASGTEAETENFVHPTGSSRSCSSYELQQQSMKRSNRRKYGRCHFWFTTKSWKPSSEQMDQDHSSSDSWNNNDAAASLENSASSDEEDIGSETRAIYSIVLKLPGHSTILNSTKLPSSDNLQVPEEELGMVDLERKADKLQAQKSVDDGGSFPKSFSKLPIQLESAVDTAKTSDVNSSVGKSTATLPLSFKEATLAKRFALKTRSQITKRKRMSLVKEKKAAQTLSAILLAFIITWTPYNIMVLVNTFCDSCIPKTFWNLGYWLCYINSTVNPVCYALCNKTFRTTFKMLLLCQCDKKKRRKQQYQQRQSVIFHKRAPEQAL

EC50 [1] [µM] | EC50 [2] [µM] | EC50 [3] [µM] | Emax [1] [%] | Emax [2] [%] | Emax [3] [%] | SMILES | M3 FDSS PA % [1] [%] | M5 FDSS PA % [2] [%] | M2 FDSS PA % [3] [%]
> 25 | > 25 | 1.16 | – | – | – | Fc1ccc(O[C@H]2CCCOC2)c(C2CCN([C@@H]3COC4(C3)CN(c3nnco3)C4)CC2)c1 (single isomer, unassigned) [Example 2Q, (S)-7-(4-(5-fluoro-2-(((S)-tetrahydro-2H-pyran-3-yl)oxy)phenyl)piperidin-1-yl)-2-(1,3,4-oxadiazol-2-yl)-5-oxa-2-azaspiro[3.4]octane or (S)-7-(4-(5-fluoro-2-(((R)-tetrahydro-2H-pyran-3-yl)oxy)phenyl)piperidin-1-yl)-2-(1,3,4-oxadiazol-2-yl)-5-oxa-2-azaspiro[3.4]octane] | 0 | 0 | 26
> 25 | > 25 | 0.443 | 0 | 0 | 40 | Fc1ccc(O[C@@H]2CCOC2)c(C2CCN([C@@H]3COC4(C3)CN(c3nncs3)C4)CC2)c1 [Example 5H, (S)-7-(4-(5-fluoro-2-(((R)-tetrahydrofuran-3-yl)oxy)phenyl)piperidin-1-yl)-2-(1,3,4-thiadiazol-2-yl)-5-oxa-2-azaspiro[3.4]octane] | – | – | –
> 25 | 6.64 | 0.453 | 0 | 0 | 32 | Fc1ccc(OC[C@H]2COCCO2)c(C2CCN([C@@H]3COC4(C3)CN(c3nncs3)C4)CC2)c1 [Example 5K, (S)-7-(4-(2-(((R)-1,4-dioxan-2-yl)methoxy)-5-fluorophenyl)piperidin-1-yl)-2-(1,3,4-thiadiazol-2-yl)-5-oxa-2-azaspiro[3.4]octane] | – | – | –
> 25 | > 25 | > 25 | 0 | 0 | 0 | c1ccc(C2CCN([C@@H]3COC4(C3)CN(c3nncs3)C4)CC2)c(OC2COC2)c1 [Example 5Q, (S)-7-(4-(2-(oxetan-3-yloxy)phenyl)piperidin-1-yl)-2-(1,3,4-thiadiazol-2-yl)-5-oxa-2-azaspiro[3.4]octane formate salt] | – | – | –
> 25 | > 25 | 0.39 | 0 | 0 | 31 | Fc1ccc(OC[C@@H]2COCCO2)c(C2CCN([C@@H]3COC4(C3)CN(c3nnco3)C4)CC2)c1 [Example 1F, (S)-7-(4-(2-(((S)-1,4-dioxan-2-yl)methoxy)-5-fluorophenyl)piperidin-1-yl)-2-(1,3,4-oxadiazol-2-yl)-5-oxa-2-azaspiro[3.4]octane] | – | – | –
> 25 | > 25 | > 25 | 0 | 0 | 0 | COc1ccccc1C1CCN([C@@H]2COC3(C2)CN(c2ncns2)C3)CC1 [Example 5B, (S)-7-(4-(2-methoxyphenyl)piperidin-1-yl)-2-(1,2,4-thiadiazol-5-yl)-5-oxa-2-azaspiro[3.4]octane] | – | – | –
> 25 | > 25 | 7.98 | 0 | 0 | 22 | Fc1cc(F)c(OC2CC3(COC3)C2)c(C2CCN([C@@H]3COC4(C3)CN(c3nnco3)C4)CC2)c1 [Example 2AA, (S)-7-(4-(2-((2-oxaspiro[3.3]heptan-6-yl)oxy)-3,5-difluorophenyl)piperidin-1-yl)-2-(1,3,4-oxadiazol-2-yl)-5-oxa-2-azaspiro[3.4]octane] | – | – | –

SMILES | EC50 [1] [µM] | EC50 [2] [µM] | EC50 [3] [µM] | Emax [1] [%] | Emax [2] [%] | Emax [3] [%] | M3 FDSS PA % [1] [%] | M5 FDSS PA % [2] [%] | M2 FDSS PA % [3] [%]
Fc1ccc(OC[C@H]2CCO2)c(C2CCN([C@@H]3COC4(C3)CN(c3nncs3)C4)CC2)c1.O=C(O)C(F)(F)F (single isomer, unassigned) [Example 2C, (S)-7-(4-(5-fluoro-2-(((R)-oxetan-2-yl)methoxy)phenyl)piperidin-1-yl)-2-(1,3,4-thiadiazol-2-yl)-5-oxa-2-azaspiro[3.4]octane trifluoroacetate or (S)-7-(4-(5-fluoro-2-(((S)-oxetan-2-yl)methoxy)phenyl)piperidin-1-yl)-2-(1,3,4-thiadiazol-2-yl)-5-oxa-2-azaspiro[3.4]octane trifluoroacetate] | > 25 | > 25 | 0.321 | – | – | – | 0 | 0 | 39
Fc1ccc([C@H]2CCOC2)c(C2CCN([C@@H]3COC4(C3)CN(c3nnco3)C4)CC2)c1 (single isomer, unassigned) [Example 3E, (S)-7-(4-(5-fluoro-2-((R)-tetrahydrofuran-3-yl)phenyl)piperidin-1-yl)-2-(1,3,4-oxadiazol-2-yl)-5-oxa-2-azaspiro[3.4]octane or (S)-7-(4-(5-fluoro-2-((S)-tetrahydrofuran-3-yl)phenyl)piperidin-1-yl)-2-(1,3,4-oxadiazol-2-yl)-5-oxa-2-azaspiro[3.4]octane] | > 25 | > 25 | 0.404 | – | – | – | 0 | 0 | 60
